From ChEMBL document CHEMBL1145718, “Two new nitrogenous sesquiterpenes from the sponge Axinyssa aplysinoides” (1997)

What was measured:
Type in all cases: functional
Saccharomyces cerevisiae [1] = experiment: DNA damaging activity against DNA repair-deficient delta RAD52 mutant yeast assessed as drug level required to produce 12 mm zone of inhibition assessed per 100 uL
Saccharomyces cerevisiae [2] = experiment: DNA damaging activity against DNA repair-deficient delta RAD52/delta TOP1 mutant yeast assessed as drug level required to produce 12 mm zone of inhibition assessed per 100 uL
Saccharomyces cerevisiae [3] = experiment: DNA damaging activity against wild type yeast assessed as drug level required to produce 12 mm zone of inhibition assessed per 100 uL

Compound	IC12 (Saccharomyces cerevisiae [1])	IC12 (Saccharomyces cerevisiae [2])	IC12 (Saccharomyces cerevisiae [3])
CC(C)[C@@H]1C[C@@H]2C(C)(NC=O)[C@H]3C[C@@H]1C[C@]2(C)C3 (stereo partly specified)	51 µg	4.8 µg	31 µg
CC(C)[C@@H]1C[C@@H]2C(C)(NC(=O)NCCc3ccccc3)[C@H]3C[C@@H]1C[C@]2(C)C3 (stereo partly specified)	45 µg	12 µg	14 µg
